Results as given in patent US8288350B2, “Methods to prevent and treat diseases” (Nour Heart, Inc., priority 2006, dated 2012).
Where no end group is shown, it is not given here. The star is where a group is joined. Boc = CC(C)(C)OC(=O)*

Assays:
[1] = Global warm ischemia by aortic cross clamping, then working Longerdorff heart; assay type: in vivo, dog
Description: Cyclocreatine (25 gm in 500 ml saline) was injected intravenously into a dog one hour before the induction of global warm ischemia. Control dogs received saline. All dogs underwent one hour of global warm ischemia by cross clamping the aorta. After the one hour of warm ischemia, hearts were removed, perfused for an additional four hours with buffer containing 1% cyclocreatine ([…]), and then placed on a working Longerdorff to measure cardiac function. After the initiation of the aortic cross clamping, cyclocreatine-treated heart continued to beat for 9 minutes during warm ischemia, while the control heart stopped beating after 2 minutes. Similarly, myocardial pH was 7.04 in the cyclocreatine-treated heart compared to pH 6.00 in control heart when measured 6 minutes after the induction of warm ischemia.
The results indicated a reduction of the caspase enzyme activities in the cyclocreatine dog (26-76% reduction of baseline) compared to the significant stimulation observed in control dogs (1.44-3.86-fold increase over baseline). […] Cyclocreatine treatment may stimulate the anti-apoptotic members of the family such as Bcl-2 and/or Bcl-x, or inhibit the pro-apoptotic members of the family such as Bak, Bax, and Bim.

[2] = system: Neutrophils isolated from human peripheral blood; assay: Inhibition of neutrophil chemotaxis induced by chemotactic factor released by H1N1-infected MDCK cells (modified chemotaxis chamber); assay type: cell-based; conditions: concentrations about 10^-5 to 10^-3 Molar; supernatant of MDCK cells incubated with H1N1 for 6 hours
[3] = system: Neutrophils isolated from human peripheral blood; assay: Inhibition of fMLF chemotactic activity (chemotaxis chamber); assay type: cell-based; conditions: FIG. 3
[4] = system: Neutrophils isolated from human peripheral blood; assay: Inhibition of neutrophil chemotaxis induced by human vascular Nourin (vein graft samples, 96 well chemotaxis plates); assay type: cell-based
Description: Isolated Human Vein Grafts: Patients' leg veins were removed from five patients scheduled for coronary bypass surgery. The samples for each patient were distended for 10 minutes at 300 mm Hg pressure and incubated in buffer (HBSS) for 1 hour at room temperature. Undistended vein grafts were incubated at room temperature in HBSS for one hour and then the solutions were tested for chemotactic activity.
Chemotaxis Assay: The chemotactic activity of vein samples was tested using standard chemotaxis assay. Briefly, neutrophils were isolated from human peripheral blood and labeled by fluorescence dye. These labeled neutrophils were used as migratory cells and placed on the top chamber of the 96 well chemotaxis plates. The vein samples were placed at the bottom wells of the plate. A filter was placed in between and the ability of the tested samples to stimulate the migration of neutrophils across the membrane was determined by incubating the chamber at 37° C. for 1 hour. The standard synthetic chemoattractant f-Met-Leu-Phe (f-MLF (SEQ ID NO:11)) was used as the positive control for 100% chemotactic response. Hank's Balanced Salt Solution (HBSS) was the negative control for random migration. Neutrophil migration was reported as the number of labeled neutrophils detected at the bottom wells which crossed the membrane filter in response to the test solutions. The samples were tested in triplicate wells.
Inhibition of the human vascular Nourin by the N-formylmethionyl blocker t-Boc-FLFLF (SEQ ID NO:2): t-Boc FLFLF (SEQ ID NO:2) is a FPR antagonist and was tested for its ability to inhibit Nourin activity on neutrophil migration. In the chemotaxis chamber, t-Boc-FLFLF (SEQ ID NO:2) was used at a final concentrations of 10^−5 Molar. […] In one human sample, t-Boc-FLFLF (SEQ ID NO:2) inhibited 100% of neutrophil chemotaxis. Similarly, the FPR antagonist Spinorphin inhibited neutrophil chemotaxis stimulated by Nourin.

For `NC1=NCCN1CC(=O)O` [cyclocreatine], the “myocardial pH” value ([1]; 6 minutes after induction of warm ischemia, control pH 6.00) was 7.04, the “reduction of caspase enzyme activities” value ([1]; control dogs 1.44-3.86-fold increase over baseline) was 26-76 % reduction of baseline and the “time heart continued to beat during warm ischemia after aortic cross clamping” value ([1]; dog, 25 gm in 500 ml saline i.v. one hour before ischemia, control 2 minutes) was 9 min. The “TNF-α released by monocytes” value ([1]; dog, in vivo) was “reduced”, the “inflammation/pain and injury induced by inflammation” value ([1]; dog, in vivo) was “reduced” and the “level of the cardiac-derived leukocyte factor” value ([1]; dog, in vivo) was “reduced”. For the same compound, the “contractility on the Longerdorff working heart” value ([1]; one-hour analysis, control strong only first 15-20 minutes) was “strong contractility throughout the one-hour analysis”, the “apoptosis as measured by caspase enzyme activity” value ([1]; treated heart vs controls) was “significant reduction” and the “myocardial ATP compared to controls” value ([1]; treated heart vs controls) was “three-fold increase”. For the same compound, the “intracellular edema as measured by MRI” value ([1]; vs control) was “reduced”, the “myocardial tissue lactic acidosis (per MRI)” value ([1]; vs control) was “reduced” and the “level of cell injury marker malondialdehyde” value ([1]; vs controls) was “reduced”.
In the case of “t-Boc-Phe-Leu-Phe-Leu-Phe (Boc-FLFLF; not fully specified (residues 2, 4); printed as t-Boc-Phe-Leu-Phe-Leu-Phe)”, the “inhibition of neutrophil chemotaxis induced by viral chemotactic factor” value [2] is reported as 30%-100%, the “inhibition of fMLF chemotactic activity” value [3] is reported as “inhibits” and the “inhibition of neutrophil chemotaxis induced by vascular Nourin” value ([4]; 10^-5 M final concentration) is reported as “up to 60%”. For the same compound, the “inhibition of neutrophil chemotaxis induced by vascular Nourin, one human sample” value ([4]; one human sample) was 100%.
For “LVVYPWT [Spinorphin, Leu-Val-Val-Tyr-Pro-Trp-Thr]”, the “inhibition of neutrophil chemotaxis stimulated by Nourin” value [4] was “inhibited”.
